Data reported in ChEMBL document CHEMBL1201862, “PubChem BioAssay data set” (2004).
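48-hour exposure; five concentrations; linearly interpolated endpoints. GI50 is the concentration that inhibits growth by half.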 Calls of active or inactive are those of the source. Cut-off read from the data, not from the text of the source: active = GI50 up to about 1.1 µM and inactive = higher. Peptide text beside a SMILES is read from it. * marks the point of attachment. Cbz = O=C(OCc1ccccc1)*

What was measured:
Test in all cases: DTP human tumour cell line panel, 48 h
A498 = tested on: A498
CAKI-1 = tested on: CAKI-1
CCRF-CEM = tested on: CCRF-CEM
HOP-92 = tested on: HOP-92
HT-29 = tested on: HT-29
K562 = tested on: K562
MOLT-4 = tested on: MOLT-4
NCI-H522 = tested on: NCI-H522
NCI/ADR-RES = tested on: NCI/ADR-RES
PC-3 = tested on: PC-3
RPMI-8226 = tested on: RPMI-8226
RXF 393 = tested on: RXF 393
SF-268 = tested on: SF-268
SF-539 = tested on: SF-539
SK-MEL-28 = tested on: SK-MEL-28
SK-OV-3 = tested on: SK-OV-3
SN12C = tested on: SN12C
T47D = tested on: T47D
TK-10 = tested on: TK-10
UO-31 = tested on: UO-31

Row | SMILES | GI50 (A498) | GI50 (CAKI-1) | GI50 (CCRF-CEM) | GI50 (HOP-92) | GI50 (HT-29) | GI50 (K562) | GI50 (MOLT-4) | GI50 (NCI-H522) | GI50 (NCI/ADR-RES) | GI50 (PC-3) | GI50 (RPMI-8226) | GI50 (RXF 393) | GI50 (SF-268) | GI50 (SF-539) | GI50 (SK-MEL-28) | GI50 (SK-OV-3) | GI50 (SN12C) | GI50 (T47D) | GI50 (TK-10) | GI50 (UO-31)
1 | CNS(=O)(=O)c1ccccc1C(=N)c1ccccc1 | > 100 µM (inactive) | > 100 µM (inactive) | > 100 µM (inactive) | > 100 µM (inactive) | > 100 µM (inactive) | > 100 µM (inactive) | > 100 µM (inactive) | > 100 µM (inactive) | > 100 µM (inactive) | > 100 µM (inactive) | > 100 µM (inactive) | > 100 µM (inactive) | > 100 µM (inactive) | > 100 µM (inactive) | > 100 µM (inactive) | > 100 µM (inactive) | > 100 µM (inactive) | > 100 µM (inactive) | > 100 µM (inactive) | > 100 µM (inactive)
2 | CCCCCCCC(=O)N/N=C/c1ccc(Sc2nccn2C)c([N+](=O)[O-])c1 | 15.2 µM (inactive) | 15.5 µM (inactive) | 0.538 µM (active) | 3.33 µM (inactive) | 9.79 µM (inactive) | 14.2 µM (inactive) | 11.4 µM (inactive) | 12.2 µM (inactive) | 17.7 µM (inactive) | 15.6 µM (inactive) | 13 µM (inactive) | 14.7 µM (inactive) | 15.7 µM (inactive) | 17 µM (inactive) | 13.9 µM (inactive) | 26.7 µM (inactive) | 14.5 µM (inactive) | 10.7 µM (inactive) | 26.6 µM (inactive) | 10.3 µM (inactive)
3 | C1CSCCCSCCCSCCCSCCCSC1 | 36.2 µM (inactive) | 17.7 µM (inactive) | 8.55 µM (inactive) | 24.1 µM (inactive) | 22.9 µM (inactive) | 21.4 µM (inactive) | 9.82 µM (inactive) | 27.2 µM (inactive) | 14.9 µM (inactive) | 19 µM (inactive) | 5.32 µM (inactive) | 42.9 µM (inactive) | 33.1 µM (inactive) | 43.7 µM (inactive) | > 100 µM (inactive) | 34.4 µM (inactive) | 37.2 µM (inactive) | 17.2 µM (inactive) | 37.2 µM (inactive) | 26.8 µM (inactive)
4 | CCOC(=O)c1ccc(Nc2c3c(nc4ccccc24)CCCC3)cc1 | 15.3 µM (inactive) | 54.5 µM (inactive) | 14.2 µM (inactive) | 18.1 µM (inactive) | 2.89 µM (inactive) | 3.74 µM (inactive) | 3.22 µM (inactive) | 3.62 µM (inactive) | > 30.3 µM (inactive) | > 47.5 µM (inactive) | > 100 µM (inactive) | 33.9 µM (inactive) | 76.2 µM (inactive) | 48.9 µM (inactive) | > 100 µM (inactive) | > 66.2 µM (inactive) | > 100 µM (inactive) | 8.51 µM (inactive) | > 74.1 µM (inactive) | > 34.3 µM (inactive)
5 | C=C1c2nc3ccccc3n2C=C(c2ccccc2)N1c1ccc(Cl)cc1 | > 48.9 µM (inactive) | 7.08 µM (inactive) | > 100 µM (inactive) | 26.8 µM (inactive) | 18.6 µM (inactive) | 51.3 µM (inactive) | > 100 µM (inactive) | 11.5 µM (inactive) | 23.6 µM (inactive) | 25.7 µM (inactive) | > 55.3 µM (inactive) | 17.5 µM (inactive) | > 100 µM (inactive) | 7.89 µM (inactive) | > 100 µM (inactive) | 27.3 µM (inactive) | > 63.5 µM (inactive) | 12.6 µM (inactive) | 13.4 µM (inactive) | 53.1 µM (inactive)
6 | CN1N=C(c2ccccc2)C(C(c2ccccc2[N+](=O)[O-])C2C(=O)N(C)N=C2c2ccccc2)C1=O (stereo not given) | > 81.8 µM (inactive) | > 100 µM (inactive) | 26.8 µM (inactive) | > 80.9 µM (inactive) | > 68.7 µM (inactive) | 33.9 µM (inactive) | 37.6 µM (inactive) | 99.8 µM (inactive) | > 100 µM (inactive) | 67.5 µM (inactive) | 34.3 µM (inactive) | 52 µM (inactive) | 97.7 µM (inactive) | > 55.5 µM (inactive) | > 100 µM (inactive) | > 100 µM (inactive) | > 95.1 µM (inactive) | > 100 µM (inactive) | > 100 µM (inactive) | > 100 µM (inactive)
7 | CC(CCC(=O)O)C(=O)O (stereo not given) | > 100 µM (inactive) | > 100 µM (inactive) | > 100 µM (inactive) | > 100 µM (inactive) | > 100 µM (inactive) | > 100 µM (inactive) | > 100 µM (inactive) | > 100 µM (inactive) | > 100 µM (inactive) | > 100 µM (inactive) | > 100 µM (inactive) | > 100 µM (inactive) | > 100 µM (inactive) | > 100 µM (inactive) | > 100 µM (inactive) | > 100 µM (inactive) | > 100 µM (inactive) | > 100 µM (inactive) | > 100 µM (inactive) | > 100 µM (inactive)
8 | N/C(=N\N=C\c1c[nH]c2ccccc12)Nc1ccccc1 | 0.256 µM (active) | 0.519 µM (active) | 0.918 µM (active) | 0.392 µM (active) | 0.191 µM (active) | 0.278 µM (active) | 0.938 µM (active) | 0.0596 µM (active) | 0.148 µM (active) | 0.201 µM (active) | 1 µM (active) | 0.156 µM (active) | 0.573 µM (active) | 0.332 µM (active) | 0.789 µM (active) | 0.418 µM (active) | 0.535 µM (active) | 1.36 µM (inactive) | 1.28 µM (inactive) | 0.721 µM (active)
9 | N=C(N)c1ccc(/N=N\c2c(O)c(C(=O)Nc3ccccc3)cc3ccccc23)cc1 | > 100 µM (inactive) | > 58.9 µM (inactive) | 2.33 µM (inactive) | 16.4 µM (inactive) | 18.4 µM (inactive) | 7.08 µM (inactive) | 2.58 µM (inactive) | 10.1 µM (inactive) | > 100 µM (inactive) | 17.9 µM (inactive) | 4.6 µM (inactive) | > 43.4 µM (inactive) | 19.9 µM (inactive) | 21 µM (inactive) | > 100 µM (inactive) | > 32.6 µM (inactive) | 23.8 µM (inactive) | 17.4 µM (inactive) | > 44.5 µM (inactive) | 75.5 µM (inactive)
10 | [O-][n+]1cc(SCc2ccccc2)ncc1SCc1ccccc1 | > 10 µM (inactive) | > 10 µM (inactive) | > 10 µM (inactive) | > 10 µM (inactive) | > 10 µM (inactive) | > 10 µM (inactive) | > 10 µM (inactive) | > 10 µM (inactive) | > 10 µM (inactive) | > 10 µM (inactive) | > 10 µM (inactive) | > 10 µM (inactive) | > 10 µM (inactive) | > 10 µM (inactive) | > 10 µM (inactive) | > 10 µM (inactive) | > 10 µM (inactive) | > 10 µM (inactive) | > 10 µM (inactive) | > 10 µM (inactive)
11 | CC(C)(C)OC(=O)N(CCCCNC(=O)C(F)(F)F)CCCNC(=O)C(F)(F)F | > 100 µM (inactive) | > 100 µM (inactive) | > 100 µM (inactive) | > 100 µM (inactive) | > 100 µM (inactive) | > 100 µM (inactive) | > 100 µM (inactive) | > 100 µM (inactive) | > 100 µM (inactive) | > 100 µM (inactive) | > 100 µM (inactive) | > 100 µM (inactive) | > 100 µM (inactive) | > 100 µM (inactive) | > 100 µM (inactive) | > 100 µM (inactive) | > 100 µM (inactive) | > 100 µM (inactive) | > 100 µM (inactive) | > 100 µM (inactive)
12 | NCCNCCCNC(=O)c1cc(-c2ccccc2)nc2ccccc12 | 41.7 µM (inactive) | 52.4 µM (inactive) | 21 µM (inactive) | 13.7 µM (inactive) | 36.2 µM (inactive) | 23.1 µM (inactive) | 22.1 µM (inactive) | 17.6 µM (inactive) | > 100 µM (inactive) | 51.3 µM (inactive) | 54 µM (inactive) | 38.8 µM (inactive) | 26.1 µM (inactive) | 19.6 µM (inactive) | 16.7 µM (inactive) | 65 µM (inactive) | 40.8 µM (inactive) | 38.5 µM (inactive) | 62.7 µM (inactive) | 46 µM (inactive)
13 | Cc1ccc(OP(=O)(Oc2ccc(C)cc2)N2C=Cc3ccccc3C2C#N)cc1 (stereo not given) | > 100 µM (inactive) | > 100 µM (inactive) | > 100 µM (inactive) | > 100 µM (inactive) | > 100 µM (inactive) | > 100 µM (inactive) | > 100 µM (inactive) | 48.8 µM (inactive) | > 100 µM (inactive) | > 100 µM (inactive) | > 100 µM (inactive) | > 100 µM (inactive) | > 100 µM (inactive) | > 100 µM (inactive) | > 100 µM (inactive) | > 100 µM (inactive) | > 100 µM (inactive) | > 100 µM (inactive) | > 100 µM (inactive) | > 100 µM (inactive)
14 | O=C(O)CCC(NC(=O)OCc1ccccc1)C(=O)NC(Cc1c[nH]cn1)C(=O)O (stereo not drawn) (Cbz-Glu-His-OH; configuration not given here) | > 100 µM (inactive) | > 100 µM (inactive) | > 100 µM (inactive) | > 100 µM (inactive) | > 100 µM (inactive) | > 100 µM (inactive) | > 100 µM (inactive) | > 100 µM (inactive) | > 100 µM (inactive) | > 100 µM (inactive) | > 100 µM (inactive) | > 100 µM (inactive) | > 100 µM (inactive) | > 100 µM (inactive) | > 100 µM (inactive) | > 100 µM (inactive) | > 100 µM (inactive) | > 100 µM (inactive) | > 100 µM (inactive) | > 100 µM (inactive)
